Results from patent US20240299400A1, “Transcription Factor GLI1 Inhibitors and Uses Thereof” (University of Connecticut, priority 2023, published 2024).

What was measured:
PIK3C2A = target: T1, PIK3C2A (Homo sapiens, UniProt O00443); experiment: Adapta kinase assay, PIK3C2A; assay type: biochemical; details: average of three replicates
T1 construct: purchased ThermoFisher Scientific (Madison, WI, USA), contract service
Procedure: (§1) Kinase screening experiments. Kinase inhibition/binding experiments were performed by ThermoFisher Scientific (Madison, WI, USA) as a contract service, utilizing their default protocols [G. Yernale, A comprehensive review on the biological interest of quinoline and its derivatives. Bioorg. Med. Chem. 32 (2021) 115973]. Briefly, for ZLyte assay, compound in DMSO (100 nL), kinase buffer (2.4 μL), peptide/kinase mixture (5 μL), and ATP solution (2.5 μL) were mixed in a black 384-well plate. Following a 30 s plate shake to mix reagents, the kinase assay mixture was incubated at RT for 60 min. Following addition of the development reagent solution to each well, another 60 min incubation was performed at RT for reaction development. Fluorescent signal was recorded and subsequently analyzed.
For the Adapta assay, compounds in DMSO (100 nL), 30 mM HEPES buffer (2.4 μL), substrate/kinase mixture (5 μL), and ATP solution (2.5 μL) were mixed in a white 384-well plate. Following a 30 s plate shake to mix the reagents and a 1 min centrifuge at 1000 g, the kinase assay mixture was incubated at RT for 60 min. Following addition of the detection mix (5 μL) to each well, 30 s plate shaking, and 1 min centrifuge at 1000 g, another 60 min incubation was performed at RT for equilibration. Fluorescent signals were recorded and subsequently analyzed.

CSF1R = target: T2, CSF1R (Homo sapiens, UniProt P07333); experiment: ZLyte kinase assay, CSF1R; assay type: biochemical; details: average of three replicates
T2 construct: purchased ThermoFisher Scientific (Madison, WI, USA), contract service
T2 sequence (P07333 20-972): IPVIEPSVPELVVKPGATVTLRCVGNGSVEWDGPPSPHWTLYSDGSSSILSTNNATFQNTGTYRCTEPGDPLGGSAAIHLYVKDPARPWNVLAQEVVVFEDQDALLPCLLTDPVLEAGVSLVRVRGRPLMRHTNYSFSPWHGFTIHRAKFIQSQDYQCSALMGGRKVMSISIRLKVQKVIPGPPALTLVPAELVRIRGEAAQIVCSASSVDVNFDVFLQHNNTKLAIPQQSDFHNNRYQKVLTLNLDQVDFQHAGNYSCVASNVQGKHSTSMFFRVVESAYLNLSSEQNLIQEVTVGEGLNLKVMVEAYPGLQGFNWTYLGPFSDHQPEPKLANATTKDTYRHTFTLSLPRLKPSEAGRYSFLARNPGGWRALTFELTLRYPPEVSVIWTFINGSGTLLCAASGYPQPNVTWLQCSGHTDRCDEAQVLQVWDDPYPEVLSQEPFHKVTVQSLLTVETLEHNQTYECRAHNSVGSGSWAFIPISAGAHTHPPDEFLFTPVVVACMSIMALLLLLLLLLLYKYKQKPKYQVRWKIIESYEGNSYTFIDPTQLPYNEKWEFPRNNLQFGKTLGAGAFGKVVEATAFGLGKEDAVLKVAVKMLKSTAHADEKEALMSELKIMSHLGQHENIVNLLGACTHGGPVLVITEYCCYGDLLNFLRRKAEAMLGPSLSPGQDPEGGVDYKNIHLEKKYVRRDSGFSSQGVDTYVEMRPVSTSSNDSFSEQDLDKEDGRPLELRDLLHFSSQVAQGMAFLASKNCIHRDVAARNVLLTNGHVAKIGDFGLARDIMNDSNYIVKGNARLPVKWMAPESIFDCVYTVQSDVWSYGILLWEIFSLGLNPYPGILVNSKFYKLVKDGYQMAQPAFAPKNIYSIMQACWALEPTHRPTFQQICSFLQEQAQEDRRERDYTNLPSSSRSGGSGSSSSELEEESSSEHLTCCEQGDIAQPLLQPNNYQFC
Procedure: as §1

MAPK3 = target: T3, MAPK3 (Homo sapiens, UniProt P27361); experiment: ZLyte kinase assay, MAPK3; assay type: biochemical; details: average of three replicates
T3 construct: purchased ThermoFisher Scientific (Madison, WI, USA), contract service
T3 sequence (P27361 whole entry): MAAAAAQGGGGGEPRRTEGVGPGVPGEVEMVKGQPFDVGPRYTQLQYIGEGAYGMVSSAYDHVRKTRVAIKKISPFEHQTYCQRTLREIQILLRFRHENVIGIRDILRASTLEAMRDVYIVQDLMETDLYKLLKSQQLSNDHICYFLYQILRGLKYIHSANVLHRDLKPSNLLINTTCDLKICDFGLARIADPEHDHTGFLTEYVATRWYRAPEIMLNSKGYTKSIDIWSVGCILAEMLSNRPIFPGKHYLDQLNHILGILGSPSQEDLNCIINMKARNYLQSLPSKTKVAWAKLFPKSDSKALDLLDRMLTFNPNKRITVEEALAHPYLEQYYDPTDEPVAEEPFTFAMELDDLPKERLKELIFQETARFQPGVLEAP
Procedure: as §1

SRC kinase = target: T4, SRC kinase (Homo sapiens, UniProt P12931); experiment: ZLyte kinase assay, SRC; assay type: biochemical; details: for inhibition at 1 µM: ZLyte, average of three replicates; for concentration-dependent inhibition of SRC kinase (in words): FIG. 6, representative experiment in triplicate
T4 construct: purchased ThermoFisher Scientific (Madison, WI, USA), contract service
T4 sequence (P12931 whole entry): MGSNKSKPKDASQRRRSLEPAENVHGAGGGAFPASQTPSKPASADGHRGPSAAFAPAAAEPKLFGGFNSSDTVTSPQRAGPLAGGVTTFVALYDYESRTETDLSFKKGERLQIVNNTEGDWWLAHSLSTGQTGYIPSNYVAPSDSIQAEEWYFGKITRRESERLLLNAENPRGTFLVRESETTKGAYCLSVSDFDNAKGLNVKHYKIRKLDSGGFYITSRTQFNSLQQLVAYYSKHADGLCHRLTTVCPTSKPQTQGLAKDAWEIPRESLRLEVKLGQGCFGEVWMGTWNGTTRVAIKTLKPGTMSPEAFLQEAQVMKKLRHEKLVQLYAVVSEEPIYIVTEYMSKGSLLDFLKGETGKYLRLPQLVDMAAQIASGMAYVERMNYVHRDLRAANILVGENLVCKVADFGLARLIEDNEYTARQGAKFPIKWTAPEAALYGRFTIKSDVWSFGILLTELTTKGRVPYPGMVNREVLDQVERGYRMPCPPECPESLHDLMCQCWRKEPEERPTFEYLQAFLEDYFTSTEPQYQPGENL
Procedure: as §1

GLI1 protein levels = experiment: Western blot GLI1 protein expression in ASZ001 cells; assay type: cell-based, murine; details: 10 and 25 μM
Procedure: (§2) ASZ001 cells were plated as described above and treated with drugs or vehicle control. Following incubation, cells were washed with chilled PBS and lysed with RIPA buffer containing […] PMSF protease inhibitor (Thermo Scientific #26978). Supernatant was collected following 15 min centrifugation at 12,000 rpm and 4° C. Protein concentrations from cell extracts were determined through the BCA kit (Pierce #23228) per the manufacturer's instructions. Proteins from either cell lysate or cell-free biochemical assay were then loaded on 12% SDS-PAGE. Following electrophoresis, proteins were transferred onto nitrocellulose membrane at 100 V for 120 min at 4° C. On a clean tray with constant gentle shaking, the membrane was sequentially submerged in 5% BSA for 1 h, and incubated with the primary antibody indicated overnight at 4° C. After washes with TBST, the appropriate secondary antibody was added to the tray for a 2 h incubation at RT. Chemiluminescent detection on film was visualized using ECL reagents (BioRad #1705060) and subsequently quantitated using Image J (http://imagej.nih.gov). Primary antibodies were used at 1:2000 dilution and are as follows: GLI1 (#MA5-32553); Gli2 (#PA5-79314); β-Actin (#PA1-16889). Secondary antibody (Goat anti-Rabbit, #32460) was used at a 1:5000 dilution. All antibodies were purchased from Invitrogen.

GLI2 protein expression = experiment: Western blot GLI2 protein expression in ASZ001 cells; assay type: cell-based, murine; details: 25 μM
Procedure: as §2

T1 sequence (O00443 whole entry): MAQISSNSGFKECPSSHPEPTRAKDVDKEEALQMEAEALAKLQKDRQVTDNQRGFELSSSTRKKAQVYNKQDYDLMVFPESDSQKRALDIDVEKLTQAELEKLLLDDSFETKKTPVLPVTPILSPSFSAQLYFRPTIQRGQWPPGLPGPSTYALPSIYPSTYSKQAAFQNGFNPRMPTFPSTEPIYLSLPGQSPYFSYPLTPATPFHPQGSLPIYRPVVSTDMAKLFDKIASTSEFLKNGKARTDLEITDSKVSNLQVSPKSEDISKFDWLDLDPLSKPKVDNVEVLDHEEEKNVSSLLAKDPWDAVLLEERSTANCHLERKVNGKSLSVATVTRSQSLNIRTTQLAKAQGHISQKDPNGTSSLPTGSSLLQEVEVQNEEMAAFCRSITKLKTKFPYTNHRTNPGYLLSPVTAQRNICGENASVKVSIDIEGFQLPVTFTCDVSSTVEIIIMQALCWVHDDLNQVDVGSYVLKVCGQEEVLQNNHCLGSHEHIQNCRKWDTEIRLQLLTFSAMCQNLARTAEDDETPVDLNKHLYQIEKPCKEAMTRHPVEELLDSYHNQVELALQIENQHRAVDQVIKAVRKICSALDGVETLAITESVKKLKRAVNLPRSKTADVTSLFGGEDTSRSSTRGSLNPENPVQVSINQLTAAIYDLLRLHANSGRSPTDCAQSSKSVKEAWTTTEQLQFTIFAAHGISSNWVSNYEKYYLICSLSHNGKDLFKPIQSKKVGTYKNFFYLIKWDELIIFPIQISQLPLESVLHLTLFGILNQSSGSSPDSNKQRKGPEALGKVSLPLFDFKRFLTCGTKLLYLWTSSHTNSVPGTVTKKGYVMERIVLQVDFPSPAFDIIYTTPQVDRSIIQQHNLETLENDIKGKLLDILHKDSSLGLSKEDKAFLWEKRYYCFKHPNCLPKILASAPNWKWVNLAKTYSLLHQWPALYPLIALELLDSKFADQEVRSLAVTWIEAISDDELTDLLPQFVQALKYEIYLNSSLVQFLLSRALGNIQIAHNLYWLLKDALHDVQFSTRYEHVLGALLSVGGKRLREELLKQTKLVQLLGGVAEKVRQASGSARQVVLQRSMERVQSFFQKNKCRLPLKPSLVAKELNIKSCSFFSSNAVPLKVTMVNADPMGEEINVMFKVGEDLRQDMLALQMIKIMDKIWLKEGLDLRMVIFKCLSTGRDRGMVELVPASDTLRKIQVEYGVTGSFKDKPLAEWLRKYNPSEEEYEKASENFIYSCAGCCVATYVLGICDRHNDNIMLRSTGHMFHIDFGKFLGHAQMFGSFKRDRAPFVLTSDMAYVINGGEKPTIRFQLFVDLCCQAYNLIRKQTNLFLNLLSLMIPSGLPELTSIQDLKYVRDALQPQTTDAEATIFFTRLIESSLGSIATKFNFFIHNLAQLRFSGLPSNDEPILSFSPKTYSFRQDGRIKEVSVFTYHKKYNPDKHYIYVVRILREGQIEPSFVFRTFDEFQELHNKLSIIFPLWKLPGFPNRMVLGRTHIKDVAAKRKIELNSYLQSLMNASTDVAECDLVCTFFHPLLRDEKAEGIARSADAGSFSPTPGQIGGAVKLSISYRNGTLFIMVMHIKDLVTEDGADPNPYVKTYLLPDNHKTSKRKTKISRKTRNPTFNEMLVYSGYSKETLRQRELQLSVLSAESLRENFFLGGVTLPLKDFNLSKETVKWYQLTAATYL

Row | SMILES | inhibition at 1 µM (PIK3C2A) | inhibition at 1 µM (CSF1R) | inhibition at 1 µM (MAPK3) | inhibition at 1 µM (SRC kinase) | concentration-dependent inhibition of SRC kinase (in words) (SRC kinase) | GLI1 protein levels (in words) (GLI1 protein levels) | GLI2 protein expression (in words) (GLI2 protein expression)
1 | Cc1ccc2ccc(C(Nc3ccccn3)c3ccncc3)c(O)c2n1 (stereo not shown) [Compound 39, 7-((Pyridin-4-yl)(pyridin-2-ylamino)methyl)-2-methylquinolin-8-ol] | -1% | 10% | 2% | 46% | inhibit SRC kinase in a concentration-dependent fashion | significantly reduced | significantly suppressed
2 | Cc1ccc2ccc(C(Nc3ccccn3)c3ccc(N4CCCC4=O)cc3)c(O)c2n1 (stereo not shown) [Compound 48, 7-((4-(2-Oxopyrrolidin-1-yl)phenyl)(pyridin-2-ylamino)methyl)-2-methylquinolin-8-ol] | 0% | 8% | 7% | 39% | inhibit SRC kinase in a concentration-dependent fashion | significantly reduced | significantly suppressed
3 | CCN(CC)c1ccc(C(Nc2ccccn2)c2ccc3ccc(C)nc3c2OC)cc1 (stereo not shown) [Compound 20, N-((4-Diethylaminophenyl)(8-methoxy-2-methylquinolin-7-yl)methyl)pyridin-2-amine] | 3% | 8% | 4% | 45% | inhibit SRC kinase in a concentration-dependent fashion |  | 
